Source: patent US4735953A, “Pharmaceutical preparation for learning stimulation and memory improvement” (priority 1986, dated 1988)

Columns and labels:
[1] = system: learning ability of mice in a shuttle chamber; test: Learning ability of mice in a shuttle chamber; format: in vivo, mouse; settings: mice
[2] = system: rabbit's brain hemispheres; test: Amplitude of induced potential in brain hemispheres (acoustic irritation); format: in vivo; settings: rabbits
Description: (§1) In the third series of experiments the effect of the preparation according to the present invention on the functional brain asymmetry was studied. The experiments were carried out on rabbits with electrodes implanted in the brain. The electrodes under nembutal narcosis (40 mg/kg) were implanted strictly symmetrically into the bearing zone of the temporal cortex of the right and left hemispheres on its lateral surface, whereas the indifferent electrode was secured to the nasal bones of a rabbit's skull. The acoustic irritation was applied through earphones. As the acoustic irritation a sound click caused by a square-shaped pulse from an electronic stimulator with a frequency of 0.1-0.2 Hz was used; the click intensity was adjusted within the range of from 5 to 80 Db. The amplification of the taken-off biopotentials was effected on an electroencephalograph; the induced potentials were obtained by means of an analyzer. 100 experiments on 20 animals were thus conducted; the interval between experiments on one animal was 7 days. The amplitude and form of the induced potential were determined. The asymmetry factor (Kas) was calculated by the formula: [formula] Ar --amplitude of the induced potential of the […] hemisphere, μV;
(§2) A1 --amplitude of the induced potential of the left hemisphere.
(§3) The test preparations were administered hypodermally in the form of 0.5-1.5% aqueous solutions 20 minutes before the beginning of the measurements.

[3] = system: cerebral cortex of rabbits; test: Asymmetry factor by induced potential in the hearing zone of the cerebral cortex; format: in vivo, rabbit
Description: as §1, §2, §3

[4] = system: learning ability of rats in a shuttle chamber; test: Active avoidance learning in a shuttle chamber, rats; format: in vivo, rat; settings: rats, hypodermally 100 mg/kg
Source text: (§4) In these experiments rats are taught to avoid an electric shock by escaping into a next chamber communicating with the first chamber by means of a special opening--a door. An electric current is applied to the chamber door consisting of metal plates. A conditional irritator is a light signal together with a sound click. The learning series consisted of 50 combinations. The number of combinations necessary for the animal's learning to escape into another chamber in response to the conditional signal was determined. Five correct responses out of 6 where regarded as the proof of stability of the acquired knowledge and were denoted as a "learning criterion". After 7 days the educational procedure was repeated, and again the number of combinations necessary to acquire the "learning criterion" was determined. In the case of difference between the first and second readings the percentage of retention of the acquired knowledge was calculated.
(§5) In this experiment the effect of the preparation according to the present invention and prior art preparations was separately evaluated for the purpose of comparison on well-learning and on specially selected poorly learning rats. […] To the poorly learning rats the animals were assigned which reached no "learning criterion" in the teaching series of 50 combinations, or, in other words, a stable knowledge of active avoidance was not worked out in them. […] The preparation according to the present invention and the prior art comparison preparations were administered before the first teaching series or thereafter.
(§6) Also studied were the effects produced upon a single and repeated administration of the preparation according to the present invention for 14 days.

[5] = system: patients; test: Clinical study on patients with memory disorders, compared to pyracetam; format: in vivo, human
Source text: The preparation according to the present invention was studied in clinics on 130 patients.
As regards diagnosis and sex the patients were distributed as follows:
skull-brain traumata with memory disturbance: 75 patients (52 men and 23 women)
Alzheimer's disease: 15 patients (3 men and 12 women)
Pick's disease: 5 patients (5 men)
Senile dementia: 15 patients (4 men and 11 women)
Vascular dementia (cerabral atero-sclerosis, hypertonic disease): 20 patients (7 men and 13 women)
In the group of patients with skull-brain trauma the patient's age varied from 17 to 60 years, in the other patients--from 52 to 75 years.
In addition to clinico-psychopathological methods of investigation, all the patients were subjected to neuropsychological studies during which specific tasks were offered them to solve. In doing so, the response was assessed against a 4-points scale: 3--maximally pronounced disorder, full or substantially full incapability to deal with the task set; 2--a medium degree of manifestation of the deficiency, solving the task with the experimentator's assistance; 1--minor errors, independent correction of mistakes; 0--lack of disturbances.
The treatment course duration is 30-60 days. In the case of an acute skull-brain trauma (65 patients) the treatment started 15-20 days after the moment of trauma and lasted for 20-30 days.
It is known that the function of memory has a complex brain organization and different zones of brains take part in its regulation. During the studies a multi-faceted assessment of the memory function was carried out; there were assessed: (1) mnestic component of the environmental orientation of a patient; (2) involuntary memory for current events; (3) intentional exo-experimental memory; (4) volume and soundness of audio-speaking memory; (5) volume and soundness of visual memory; (6) operative memory; (7) memory for knowledge acquired before the disease.

[6] = system: learning ability of rats preliminarily sorted out for poor learning ability; test: Active avoidance learning in a shuttle chamber, rats sorted out for poor learning ability; format: in vivo, rat; settings: poorly learning rats, hypodermally 100 mg/kg
Source text: as §4, §5, §6

[7] = hypodermally 10 mg/kg, 12 day (retention)
[8] = hypodermally 30 mg/kg, 12 day (retention)
[9] = hypodermally 100 mg/kg, 1st day
[10] = hypodermally 100 mg/kg, 12 day (retention)
[11] = per os 30 mg/kg, 12 day (retention)
[12] = per os 100 mg/kg, 12 day (retention)

NC(=O)CN1CCCC1=O [Pyracetam, pyracetam]
learning and memory (in words) ([1]; hypodermally): improves learning, but not memory | % of avoidance reactions, group I ([1]; hypodermally 10 mg/kg, 1st day): 23% | % of avoidance reactions, group II ([1]; hypodermally 10 mg/kg, 1st day): 33% | % of avoidance reactions, group III ([1]; hypodermally 10 mg/kg, 1st day): 48% | % of avoidance reactions, group IV ([1]; hypodermally 10 mg/kg, 1st day): 52% | % of avoidance reactions, group V ([1]; hypodermally 10 mg/kg, 1st day): 60% | % of avoidance reactions, group VI ([1]; hypodermally 10 mg/kg, 1st day): 61% | % of avoidance reactions, group I [1, 7]: 60% | % of avoidance reactions, group II [1, 7]: 78% | % of avoidance reactions, group III [1, 7]: 80% | % of avoidance reactions, group IV [1, 7]: 79% | % of avoidance reactions, group V [1, 7]: 80% | % of avoidance reactions, group VI [1, 7]: 78% | % of avoidance reactions, group I ([1]; hypodermally 30 mg/kg, 1st day): 20% | % of avoidance reactions, group II ([1]; hypodermally 30 mg/kg, 1st day): 32% | % of avoidance reactions, group III ([1]; hypodermally 30 mg/kg, 1st day): 55% | % of avoidance reactions, group IV ([1]; hypodermally 30 mg/kg, 1st day): 67% | % of avoidance reactions, group V ([1]; hypodermally 30 mg/kg, 1st day): 70% | % of avoidance reactions, group VI ([1]; hypodermally 30 mg/kg, 1st day): 75% | % of avoidance reactions, group I [1, 8]: 60% | % of avoidance reactions, group II [1, 8]: 80% | % of avoidance reactions, group III [1, 8]: 82% | % of avoidance reactions, group IV [1, 8]: 81% | % of avoidance reactions, group V [1, 8]: 84% | % of avoidance reactions, group VI [1, 8]: 88% | % of avoidance reactions, group I [1, 9]: 24% | % of avoidance reactions, group II [1, 9]: 41% | % of avoidance reactions, group III [1, 9]: 55% | % of avoidance reactions, group IV [1, 9]: 70% | % of avoidance reactions, group V [1, 9]: 72% | % of avoidance reactions, group VI [1, 9]: 74% | % of avoidance reactions, group I [1, 10]: 62% | % of avoidance reactions, group II [1, 10]: 90% | % of avoidance reactions, group III [1, 10]: 92% | % of avoidance reactions, group IV [1, 10]: 90% | % of avoidance reactions, group V [1, 10]: 90% | % of avoidance reactions, group VI [1, 10]: 92% | effect upon per os administration (in words) ([1]; per os): the effect is noticeably reduced | % of avoidance reactions, group I ([1]; per os 30 mg/kg, 1st day): 11% | % of avoidance reactions, group II ([1]; per os 30 mg/kg, 1st day): 17% | % of avoidance reactions, group III ([1]; per os 30 mg/kg, 1st day): 31% | % of avoidance reactions, group IV ([1]; per os 30 mg/kg, 1st day): 32% | % of avoidance reactions, group V ([1]; per os 30 mg/kg, 1st day): 33% | % of avoidance reactions, group VI ([1]; per os 30 mg/kg, 1st day): 40% | % of avoidance reactions, group I [1, 11]: 48% | % of avoidance reactions, group II [1, 11]: 70% | % of avoidance reactions, group III [1, 11]: 71% | % of avoidance reactions, group IV [1, 11]: 78% | % of avoidance reactions, group V [1, 11]: 78% | % of avoidance reactions, group VI [1, 11]: 81% | % of avoidance reactions, group I ([1]; per os 100 mg/kg, 1st day): 21% | % of avoidance reactions, group II ([1]; per os 100 mg/kg, 1st day): 22% | % of avoidance reactions, group III ([1]; per os 100 mg/kg, 1st day): 32% | % of avoidance reactions, group IV ([1]; per os 100 mg/kg, 1st day): 42% | % of avoidance reactions, group V ([1]; per os 100 mg/kg, 1st day): 43% | % of avoidance reactions, group VI ([1]; per os 100 mg/kg, 1st day): 52% | % of avoidance reactions, group I [1, 12]: 69% | % of avoidance reactions, group II [1, 12]: 80% | % of avoidance reactions, group III [1, 12]: 82% | % of avoidance reactions, group IV [1, 12]: 79% | % of avoidance reactions, group V [1, 12]: 78% | % of avoidance reactions, group VI [1, 12]: 78% | amplitude of induced potentials (in words) [2]: failed to influence all these characteristics | asymmetry factor (in words) [3]: failed to influence all these characteristics | Asymmetry factor, Preparation ([3]; hypodermally 100 mg/kg, control 0.19 ± 0.03): 0.213 ± 0.05 | Number of combinations to reach the "learning criterion" in II teaching series (after 7 days) [4]: 4.7 ± 0.9 | Number of combinations to reach the "learning criterion" in the I teaching series [4]: 20.8 ± 1.2 | Number of non-taught animals in the group [4]: 1/20 | Percentage knowledge retention [4]: 70% | effect on the functional symmetry of the brain and activity of the dominating hemisphere ([5]; experimental and clinical studies): no such effect | character of recovery (in words) ([5]; patients): uniform regression of all available disorders | % of knowledge retention [6]: 26% | Number of combinations till appearance of "learning criterion", I teaching [6]: 30.3 ± 2.5 | Number of combinations till appearance of "learning criterion", II-checking of retention of knowledge [6]: 22.4 ± 2.1 | Number of untaught animals in the group [6]: 9/20
